Measurements from patent US10568930B2, “Agents and methods of treatment” (Hexima Limited, priority 2014, dated 2020).
Like-named read-outs stand apart in the source and are kept apart here.

Assays:
[1] = tested on: Candida albicans; assay: Antifungal growth assay, defensin plus proteinase inhibitor; assay type: cell-based; parameters: key to Synergy: Io-Ee in % inhibition points; >60 high synergy, <15 none; conditions: for Expected inhibition: Ee, Limpel formula; for Synergy: Io-Ee
Method: (§1) Spores are isolated from sporulating fungus spp. growing on yeast extract peptone dextrose agar (Candida albicans, Cryptococcus gattii—1.5×10^6) or ½ strength Sabouraud dextrose agar (Trichophyton interdigitale, Microsporum fulvum—5×10^4). Spores are removed from the plates by the addition of ½ strength potato dextrose broth (PDB). Spore concentrations are measured using a haemocytometer.
(§2) Antifungal assays were conducted in 96 well microtitre plates. Wells were loaded with 10 μL of filter sterilized (0.22 μm syringe filter, Millipore) defensin (10× stock for each final concentration) or water, 10 μL, of filter sterilized (0.22 μm syringe filter, Millipore) proteinase inhibitor or chemical fungicide (10× stock for each final concentration) or water and 80 μL of 5×10^3 spores/mL in ½ strength PDB. The plates were incubated at 24° C. Fungal growth was assayed by measuring optical density at 595 nm (A595) using a microtitre plate reader (SpectraMax Pro M2; Molecular Devices. Growth was allowed to proceed until the optical density (OD) of the fungus in the absence of any test defensin reached an OD of 0.2. Each test was performed in duplicate.
(§3) Synergy is classified as the difference between the observed % fungal growth inhibition caused by the combination of a defensin and a proteinase inhibitor (or a defensin and a chemical fungicide) (Io value) and the expected % fungal growth inhibition of the defensin and the proteinase inhibitor (or the defensin and the chemical fungicide) based on the sum of the % fungal growth inhibition of the defensin and the proteinase inhibitor (or the defensin and the chemical fungicide) on their own (Ee value calculated according to the Limpel formula used by Richer et al. (1987) supra). The difference, Io-Ee, is the synergy value. A synergy value up to 15 means no significant synergy; 15-30 is a low level of synergy; 30-60 is a medium level of synergy; and >60 is a high level of synergy. Synergy calculations are presented in Tables 2 through 7 wherein, as indicated above, Ee is the expected effect from the additive response according to Limpel's formula expressed as percent inhibition and To is the percent inhibition observed. Synergy occurs when To values are higher than Ee values.

[2] = tested on: plasma membrane; conditions: cited from earlier work
[3] = tested on: Candida albicans; assay: Antifungal growth assay, defensin plus chemical fungicide; assay type: cell-based; parameters: key to Synergy: Io-Ee in % inhibition points; <15 none, 15-30 low, 30-60 medium, >60 high; conditions: permeabilizing defensin 1 μM + Caspofungin (2 ng/ml)
Method: Chemical fungicides were sourced commercially and were prepared as 10× stock solutions in H2O (caspofungin and fenpropimorph) or as a 100× stock in methanol (terbinafine).
as §1, §2, §3

[4] = tested on: Microsporum fulvum; assay: Antifungal growth assay, defensin plus proteinase inhibitor; assay type: cell-based; conditions: for Expected inhibition: Ee, Limpel formula; for Synergy: Io-Ee
Method: as §1, §2, §3

[5] = tested on: Cryptococcus gattii; assay: as above; assay type: cell-based; conditions: for Expected inhibition: Ee, Limpel formula; for Synergy: Io-Ee
Method: as §1, §2, §3

[6] = tested on: Trichophyton interdigitale; assay: as above; assay type: cell-based; conditions: for Expected inhibition: Ee, Limpel formula; for Synergy: Io-Ee
Method: as §1, §2, §3

[7] = defensin 2 μM + BPTI (0.625 μM)
[8] = defensin 2 μM + HyCPI6 (2.5 μM)
[9] = defensin 2 μM + SlCys9N (2.5 μM)
[10] = defensin 0.5 μM + BPTI (0.625 μM)
[11] = defensin 0.5 μM + HyCPI6 (0.625 μM)
[12] = defensin 0.5 μM + SlCys9N (5 μM)
[13] = defensin 2 μM + HvCPI6 (2.5 μM)
[14] = defensin 1 μM + BPTI (0.625 μM)
[15] = defensin 1 μM + HvCPI6 (2.5 μM)
[16] = defensin 1 μM + SlCys9N (2.5 μM)

“NaD1: Solanaceous Class II plant defensin from flowers of Nicotiana alata (Q8GTMO); permeabilizing defensin (RECKTESNTFPGICITKPPCRKACISEKFTDGHCSKILRRCLCTKPC; UniProt Q8GTM0 26-72, looked up)” showed an Observed inhibition [1, 7] of 94.1%, an Expected inhibition [1, 7] of 29.7% and a Synergy [1, 7] of 64.4. For the same substance, the Observed inhibition [1, 8] was 64.7%, the Expected inhibition [1, 8] was 0.0% and the Synergy [1, 8] was 64.7. The Observed inhibition [1, 9] was 94.8%, the Expected inhibition [1, 9] was 31.9% and the Synergy [1, 9] was 62.9. For the same substance, the Membrane permeabilization ([2]; at concentrations corresponding to the IC50) was “significant membrane permeabilization”, the Membrane permeabilization ([2]; at low concentrations that do not cause growth inhibition, van der Weerden et al. (2008)) was “some membrane permeabilization” and the “Time at which permeabilization begins” value ([2]; van der Weerden et al. (2010)) was ≤ 15 min. The “Time at which permeabilization reaches its maximum” value ([2]; van der Weerden et al. (2010)) was 80 min, the Observed inhibition [3] was 61.7% and the Expected inhibition ([3]; Ee, Limpel formula) was 1.2%. The Synergy ([3]; Io-Ee) was 60.5, the Observed inhibition [4, 10] was 52.9% and the Expected inhibition [4, 10] was 34.3%. For the same substance, the Synergy [4, 10] was 18.6, the Observed inhibition [4, 11] was 43.8% and the Expected inhibition [4, 11] was 19.0%. For the same substance, the Synergy [4, 11] was 24.8, the Observed inhibition [4, 12] was 79.9% and the Expected inhibition [4, 12] was 40.7%. For the same substance, the Synergy [4, 12] was 39.2, the Observed inhibition [5, 7] was 95.6% and the Expected inhibition [5, 7] was 22.0%. For the same substance, the Synergy [5, 7] was 73.7, the Observed inhibition [5, 13] was 96.2% and the Expected inhibition [5, 13] was 32.1%. For the same substance, the Synergy [5, 13] was 64.1, the Observed inhibition [5, 9] was 98.8% and the Expected inhibition [5, 9] was 0.0%. It also gave a Synergy [5, 9] of 98.8, an Observed inhibition [6, 14] of 89.1% and an Expected inhibition [6, 14] of 57.9%. It also gave a Synergy [6, 14] of 31.2, an Observed inhibition [6, 15] of 71.6% and an Expected inhibition [6, 15] of 33.5%. It also gave a Synergy [6, 15] of 38.1, an Observed inhibition [6, 16] of 81.1% and an Expected inhibition [6, 16] of 28.1%. The Synergy [6, 16] was 53.0.
